Values of other authors, collected in patent US20240315991A1, “USES OF HNF4 ALPHA AGONISTS” (Sanford Burnham Prebys Medical Discovery Institute, priority 2023, published 2024).

Key:
HNF4α [1] = target: T1, HNF4α (Homo sapiens, UniProt P41235); settings: GFP expressed under the control of the human insulin promoter; cited from earlier work
T1 sequence (P41235 1-474): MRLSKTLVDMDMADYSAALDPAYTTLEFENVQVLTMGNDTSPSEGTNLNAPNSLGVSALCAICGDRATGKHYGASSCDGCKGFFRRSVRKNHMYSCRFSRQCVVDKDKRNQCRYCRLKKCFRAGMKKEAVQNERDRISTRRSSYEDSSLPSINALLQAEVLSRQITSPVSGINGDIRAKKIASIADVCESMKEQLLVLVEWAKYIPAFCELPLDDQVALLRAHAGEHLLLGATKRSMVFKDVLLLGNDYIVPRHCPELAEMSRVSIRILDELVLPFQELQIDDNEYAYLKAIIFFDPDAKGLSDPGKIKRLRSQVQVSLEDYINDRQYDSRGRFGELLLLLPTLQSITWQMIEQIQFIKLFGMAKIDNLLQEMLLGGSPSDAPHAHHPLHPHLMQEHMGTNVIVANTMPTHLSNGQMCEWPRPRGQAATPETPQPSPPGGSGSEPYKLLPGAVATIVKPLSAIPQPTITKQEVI

HNF4α [2] = target: T1, HNF4α; settings: cited from earlier work
[3] = cited from earlier work

Structure (SMILES) | agonism of HNF4α (HNF4α [1]) | specificity for HNF4α (HNF4α [2]; HNF4α siRNA ablates their effect) | activation of HNF4α, potency compared with Alverine and Benfluorex (HNF4α [2]) | oral bioavailability [3]
CC(Cc1cccc(C(F)(F)F)c1)NCCOC(=O)c1ccccc1 (centres unmarked) [Benfluorex] | weak agonists |  |  | 
CCN(CCCc1ccccc1)CCCc1ccccc1 [Alverine] | weak agonists |  |  | 
COc1cc(/C=C/C(=O)NCCc2ccc(O)cc2)ccc1O [NFT, N-trans feruloyltyramine, reference compound] |  | exhibit specificity for HNF4α | much more potent activators | poor
